The values below come from patent publication US7994324B2, “2-aminoquinoline derivatives” (Hoffmann-La Roche Inc., priority 2008, dated 2011).

Usually melting point stands for the temperature, or range, at which the solid turns liquid. As usually defined, the Ki is the dissociation constant of the complex between target and ligand, obtained from inhibition or displacement.

Data set [1] has as its target T1, recombinant human 5-HT5A receptor (Homo sapiens, UniProt P47898).
T1 construct: expressed in transfected cells; host or cells: HEK-EBNA (Human Embryonic Kidney-EBNA) cells, transient cDNA expression; membranes used
Nature of the data set: [3H]LSD radioligand binding assay. Particulars: [3H]LSD (approximately 1 nM), membranes from HEK-EBNA cells transiently expressing 5-HT5A receptors; Ki from IC50 by Cheng-Prussoff equation. How it is done: A [^3H]LSD radioligand binding assay was used to determine the affinity of the compounds for the recombinant human 5-HT5A receptor, in membranes from transiently (cDNA) expressed 5-HT5A receptors in Human Embryonic Kidney-EBNA (HEK-EBNA) cells. Assay buffer consisted of Tris (50 mM) buffer containing 1 mM EGTA, 10 mM MgCl2 (pH 7.4) and 10 μM pargyline. The binding assay was carried out in 96-well-plates in the presence of [^3H]LSD (approximately 1 nM), approximately 2 μg/well of membrane protein, and 0.5 mg of Ysi-poly-1-lysine SPA beads in a final volume of 200 μl of buffer. Non-specific binding was defined using methiothepin 2 μM. Compounds were tested at 10 concentrations. All assays were conducted in duplicate and repeated at least two times. Assay plates were incubated for 120 min at room temperature before centrifugation. Bound ligand was determined using a Packard Topcount scintillation counter. IC50 values were calculated using a non-linear curve fitting program and Ki values calculated using the Cheng-Prussoff equation.

T1 sequence (P47898 whole entry): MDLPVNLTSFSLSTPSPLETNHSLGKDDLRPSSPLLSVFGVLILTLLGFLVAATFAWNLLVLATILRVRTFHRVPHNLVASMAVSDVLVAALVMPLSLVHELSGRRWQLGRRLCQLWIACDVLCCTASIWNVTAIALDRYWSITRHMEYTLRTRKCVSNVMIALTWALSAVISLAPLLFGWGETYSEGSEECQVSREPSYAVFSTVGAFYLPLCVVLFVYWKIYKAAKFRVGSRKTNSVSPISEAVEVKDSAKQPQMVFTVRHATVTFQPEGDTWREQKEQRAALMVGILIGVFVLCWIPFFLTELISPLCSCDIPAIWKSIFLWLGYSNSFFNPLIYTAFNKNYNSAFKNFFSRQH

On to `COc1cccc2c1C(Nc1ccc3c(NCCS(C)(=O)=O)cccc3n1)CO2` (racemic) [Example 40, N^5-(2-Methanesulfonyl-ethyl)-N^2-(RS)-(4-methoxy-2,3-dihydro-benzofuran-3-yl)-quinoline-2,5-diamine], for which the melting point is 188 °C. Moreover, in data set [1], the Ki was found to be 29.1 nM. The compound `O=C(Cc1ccc(F)cc1)Nc1cccc2nc(NC3CCc4cc(F)ccc43)ccc12` (racemic) [Example 48, rac-N-[2-(5-Fluoro-indan-1-ylamino)-quinolin-5-yl]-2-(4-fluoro-phenyl)-acetamide] gave a melting point of 187 °C. Moreover, in data set [1], the Ki is 17.6 nM. On the same counts, the results for `O=C(Cc1ccc(Cl)cc1)Nc1cccc2nc(NC3CCc4cc(F)ccc43)ccc12` (racemic) [Example 51, rac-2-(4-Chloro-phenyl)-N-[2-(5-fluoro-indan-1-ylamino)-quinolin-5-yl]-acetamide] are 221 °C and 9.4 nM.

As for `COc1ccc(CC(=O)Nc2cccc3nc(NC4CCc5cc(F)ccc54)ccc23)cc1` (racemic) [Example 53, rac-N-[2-(5-Fluoro-indan-1-ylamino)-quinolin-5-yl]-2-(4-methoxy-phenyl)-acetamide], the melting point came out at 192 °C. With `COc1cccc2c1C(Nc1ccc3c(NC(=O)Cc4ccc(F)cc4)cccc3n1)CC2` (racemic) [Example 54, rac-2-(4-Fluoro-phenyl)-N-[2-(7-methoxy-indan-1-ylamino)-quinolin-5-yl]-acetamide], the melting point was 195 °C. Further, in data set [1], the Ki came out at 11 nM. For the compound `COc1cccc2c1C(Nc1ccc3c(NC(=O)Cc4cccs4)cccc3n1)CC2` (racemic) [Example 55, rac-N-[2-(7-Methoxy-indan-1-ylamino)-quinolin-5-yl]-2-thiophen-2-yl-acetamide], the melting point was determined as 194 °C. In the case of `COc1cccc2c1C(Nc1ccc3c(NC(=O)Cc4cc(F)cc(F)c4)cccc3n1)CC2` (racemic) [Example 56, rac-2-(3,5-Difluoro-phenyl)-N-[2-(7-methoxy-indan-1-ylamino)-quinolin-5-yl]-acetamide], the melting point amounted to 248 °C. In turn, `COc1cccc2c1C(Nc1ccc3c(NC(=O)Cc4ccc(Cl)cc4)cccc3n1)CC2` (racemic) [Example 57, rac-2-(4-Chloro-phenyl)-N-[2-(7-methoxy-indan-1-ylamino)-quinolin-5-yl]-acetamide] showed a melting point of 234 °C. Moreover, the Ki in data set [1] turned out to be 9.1 nM. In the case of `COc1ccc(CC(=O)Nc2cccc3nc(NC4CCc5cccc(OC)c54)ccc23)cc1` (racemic) [Example 58, rac-N-[2-(7-Methoxy-indan-1-ylamino)-quinolin-5-yl]-2-(4-methoxy-phenyl)-acetamide], the melting point was found to be 209 °C. Compound `N=C(NO)c1cccc2nc(N[C@@H]3CCc4ccccc43)ccc12` [Example 28, N-Hydroxy-2-((R)-indan-1-ylamino)-quinoline-5-carboxamidine] showed a melting point of 200.5 °C. The Ki in data set [1] was determined as 17.4 nM.

Compound `ON=C(c1cccc2nc(N[C@@H]3CCc4ccccc43)ccc12)C1CC1` [Example 31, Cyclopropyl-[2-((R)-indan-1-ylamino)-quinolin-5-yl]-methanone oxime] registered a melting point of 151 °C. The inhibition constant (Ki) in data set [1] was found to be 5.8 nM. In the case of `CN(C)CC(=O)Nc1cccc2nc(N[C@@H]3CCc4ccccc43)ccc12` [Example 32, 2-Dimethylamino-N-[2-((R)-indan-1-ylamino)-quinolin-5-yl]-acetamide], the melting point was 153 °C. Regarding `O=C(CN1CCOCC1)Nc1cccc2nc(N[C@@H]3CCc4ccccc43)ccc12` [Example 33, N-[2-((R)-Indan-1-ylamino)-quinolin-5-yl]-2-morpholin-4-yl-acetamide], the melting point came to 179 °C. On the same count and under the same terms, then `O=C(CC1CCOCC1)Nc1cccc2nc(N[C@@H]3CCc4ccccc43)ccc12` [Example 35, N-[2-((R)-Indan-1-ylamino)-quinolin-5-yl]-2-(tetrahydro-pyran-4-yl)-acetamide], with 211 °C. Turning to `O=C(Cc1ccc(F)cc1)Nc1cccc2nc(N[C@@H]3CCc4ccccc43)ccc12` [Example 45, 2-(4-Fluoro-phenyl)-N-[2-((R)-indan-1-ylamino)-quinolin-5-yl]-acetamide], the melting point was 207 °C. Also, the Ki in data set [1] came to 11 nM. On the same counts, the results for `O=C(Cc1cccs1)Nc1cccc2nc(N[C@@H]3CCc4ccccc43)ccc12` [Example 46, N-[2-((R)-Indan-1-ylamino)-quinolin-5-yl]-2-thiophen-2-yl-acetamide] are 163.5 °C and 36.1 nM. In the case of `O=C(Cn1ccnc1)Nc1cccc2nc(N[C@@H]3CCc4ccccc43)ccc12` [Example 47, 2-Imidazol-1-yl-N-[2-((R)-indan-1-ylamino)-quinolin-5-yl]-acetamide], the melting point was 226 °C.

`COc1ccc(CC(=O)Nc2cccc3nc(N[C@@H]4CCc5ccccc54)ccc23)cc1` [Example 52, N-[2-((R)-Indan-1-ylamino)-quinolin-5-yl]-2-(4-methoxy-phenyl)-acetamide] came in with a melting point of 175 °C.

Compound `O=C(Cc1cc(F)cc(F)c1)Nc1cccc2nc(N[C@@H]3CCc4ccccc43)ccc12` [Example 59, 2-(3,5-Difluoro-phenyl)-N-[2-((R)-indan-1-ylamino)-quinolin-5-yl]-acetamide] had a melting point of 221 °C. Also, in data set [1], the Ki worked out at 28.7 nM. On the same counts, the results for `O=C(Cc1ccc(Cl)cc1)Nc1cccc2nc(N[C@@H]3CCc4ccccc43)ccc12` [Example 60, 2-(4-Chloro-phenyl)-N-[2-((R)-indan-1-ylamino)-quinolin-5-yl]-acetamide] are 170 °C and 5.5 nM.
